ChEMBL document CHEMBL4665682, “Fragment Linking Strategies for Structure-Based Drug Design” (J Med Chem, 2020)

Experiments:
Caspase-3 = biological target: T1, Caspase-3 (Homo sapiens, UniProt P42574); assay: Inhibition of caspase-3 (unknown origin) using Ac-DEVD-AMCA as substrate incubated for 5 mins by Dixon plot analysis
T1 sequence (P42574 whole entry): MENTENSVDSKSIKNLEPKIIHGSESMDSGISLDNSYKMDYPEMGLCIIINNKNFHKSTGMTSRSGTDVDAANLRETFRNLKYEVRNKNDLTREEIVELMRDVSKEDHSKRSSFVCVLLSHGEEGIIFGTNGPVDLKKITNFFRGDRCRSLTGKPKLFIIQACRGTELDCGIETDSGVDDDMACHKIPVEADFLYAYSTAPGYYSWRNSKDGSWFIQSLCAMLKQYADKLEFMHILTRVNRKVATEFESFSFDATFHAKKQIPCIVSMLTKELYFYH

[1] = Inhibition of Influenza B virus (B/Victoria/504/2000) Neuraminidase
Acetylcholinesterase [2] = biological target: T2, Acetylcholinesterase (Mus musculus, UniProt P21836); assay: Binding affinity to mouse ACHE by fluorescence method
T2 sequence (P21836 whole entry): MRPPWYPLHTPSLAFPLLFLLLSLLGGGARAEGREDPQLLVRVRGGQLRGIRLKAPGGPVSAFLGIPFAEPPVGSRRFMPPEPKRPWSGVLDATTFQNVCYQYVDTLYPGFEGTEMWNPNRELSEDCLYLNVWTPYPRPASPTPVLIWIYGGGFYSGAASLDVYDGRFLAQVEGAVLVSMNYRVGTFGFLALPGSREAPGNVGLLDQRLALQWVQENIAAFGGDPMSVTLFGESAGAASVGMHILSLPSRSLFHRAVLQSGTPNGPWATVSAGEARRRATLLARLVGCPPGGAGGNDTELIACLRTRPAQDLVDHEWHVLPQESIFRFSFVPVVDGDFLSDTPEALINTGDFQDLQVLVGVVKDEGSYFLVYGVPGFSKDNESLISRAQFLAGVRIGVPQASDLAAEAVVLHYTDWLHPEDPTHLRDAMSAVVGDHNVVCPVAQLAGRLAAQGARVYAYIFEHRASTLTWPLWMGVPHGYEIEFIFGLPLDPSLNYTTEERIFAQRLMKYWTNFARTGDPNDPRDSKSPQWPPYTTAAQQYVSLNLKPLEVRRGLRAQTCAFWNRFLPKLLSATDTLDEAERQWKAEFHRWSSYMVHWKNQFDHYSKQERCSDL

Acetylcholinesterase [3] = biological target: T3, Acetylcholinesterase (Rattus norvegicus, UniProt P37136)
T3 sequence (P37136 whole entry): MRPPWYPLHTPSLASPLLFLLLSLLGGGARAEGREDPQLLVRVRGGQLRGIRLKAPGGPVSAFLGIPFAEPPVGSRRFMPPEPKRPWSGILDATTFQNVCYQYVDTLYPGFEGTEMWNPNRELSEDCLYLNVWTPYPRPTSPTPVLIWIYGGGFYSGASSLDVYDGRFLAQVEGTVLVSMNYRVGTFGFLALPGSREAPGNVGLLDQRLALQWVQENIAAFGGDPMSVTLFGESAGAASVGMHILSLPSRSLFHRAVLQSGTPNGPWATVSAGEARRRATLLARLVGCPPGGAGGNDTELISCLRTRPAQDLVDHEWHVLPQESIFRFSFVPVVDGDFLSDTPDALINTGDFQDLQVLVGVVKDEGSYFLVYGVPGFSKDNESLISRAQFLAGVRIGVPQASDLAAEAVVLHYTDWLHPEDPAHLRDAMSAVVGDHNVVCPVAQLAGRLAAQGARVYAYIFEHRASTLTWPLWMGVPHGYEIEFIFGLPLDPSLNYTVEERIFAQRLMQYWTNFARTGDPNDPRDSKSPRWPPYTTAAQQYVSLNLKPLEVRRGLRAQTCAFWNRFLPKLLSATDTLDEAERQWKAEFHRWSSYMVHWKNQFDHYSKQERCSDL
Description: Inhibition of rat brain Acetylcholinesterase using acetylthiocholine as substrate in presence of BChE inhibitor ethopropazine

Q: For `CN(C)c1ccc(-c2nc3cc(N)ccc3o2)cc1`, which Ki (Caspase-3) is on record?
A: 120 µM

Q: With `CCC(CC)N[C@@H]1C=C(C(=O)O)C[C@H](N)[C@H]1NC(C)=O` as the compound, how does the Ki [1] read?
A: 0.085 µM

Q: For `C#CCCCCCC[n+]1c(-c2ccccc2)c2cc(N)ccc2c2ccc(N)cc21`, which Kd (Acetylcholinesterase [2]) is on record?
A: 10000 µM

Q: For `c1ccc2c(NCCCCCCNc3c4c(nc5ccccc35)CCCC4)c3c(nc2c1)CCCC3`, which IC50 (Acetylcholinesterase [3]) is on record?
A: 0.0004 µM
